According to PubChem BioAssay (NCI):
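1) Cells in 96-well plates. 2) Compound, 48 h, 5 concentrations. 3) Linear interpolation between surrounding doses. 4) Unreached endpoint = highest concentration. GI50 marks 50% less growth. TGI: concentration producing complete growth inhibition.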

Key:
Assay in all cases: growth of human tumour cells (NCI), 48 h
EKVX NSCLC = system: EKVX NSCLC
SF-268 CNS = system: SF-268 CNS
PC-3 prostate = system: PC-3 prostate
NCI-H23 lung = system: NCI-H23 lung
UACC-257 melanoma = system: UACC-257 melanoma
M14 melanoma = system: M14 melanoma
SNB-19 CNS = system: SNB-19 CNS
LOX IMVI melanoma = system: LOX IMVI melanoma
NCI-H460 lung = system: NCI-H460 lung
RPMI-8226 leukemia = system: RPMI-8226 leukemia
SR leukemia = system: SR leukemia
A549 NSCLC = system: A549 NSCLC
SNB-75 CNS = system: SNB-75 CNS
CCRF-CEM leukemia = system: CCRF-CEM leukemia
SK-OV-3 ovarian = system: SK-OV-3 ovarian
MOLT-4 leukemia = system: MOLT-4 leukemia
DU-145 prostate = system: DU-145 prostate
MDA-MB-435 = system: MDA-MB-435
OVCAR-8 ovarian = system: OVCAR-8 ovarian
SK-MEL-2 melanoma = system: SK-MEL-2 melanoma
SF-295 CNS = system: SF-295 CNS
K-562 leukemia = system: K-562 leukemia
HOP-62 NSCLC = system: HOP-62 NSCLC
SN12C renal = system: SN12C renal
NCI/ADR-RES ovarian = system: NCI/ADR-RES ovarian
OVCAR-5 ovarian = system: OVCAR-5 ovarian
COLO 205 colon = system: COLO 205 colon
UACC-62 melanoma = system: UACC-62 melanoma
KM12 colon = system: KM12 colon
MDA-N = system: MDA-N
SK-MEL-5 melanoma = system: SK-MEL-5 melanoma
A498 renal = system: A498 renal
SF-539 CNS = system: SF-539 CNS
SW-620 colon = system: SW-620 colon
HCT-15 colon = system: HCT-15 colon
T-47D breast = system: T-47D breast
ACHN renal = system: ACHN renal
TK-10 renal = system: TK-10 renal
UO-31 renal = system: UO-31 renal
OVCAR-4 ovarian = system: OVCAR-4 ovarian
MDA-MB-231 breast = system: MDA-MB-231 breast
HT29 colon = system: HT29 colon
U251 CNS = system: U251 CNS
MCF7 breast = system: MCF7 breast
NCI-H522 lung = system: NCI-H522 lung
MALME-3M melanoma = system: MALME-3M melanoma
HCC-2998 colon = system: HCC-2998 colon
SK-MEL-28 melanoma = system: SK-MEL-28 melanoma
HL-60(TB) leukemia = system: HL-60(TB) leukemia
HCT-116 colon = system: HCT-116 colon
OVCAR-3 ovarian = system: OVCAR-3 ovarian
CAKI-1 renal = system: CAKI-1 renal
HOP-92 NSCLC = system: HOP-92 NSCLC
NCI-H226 lung = system: NCI-H226 lung
IGROV1 ovarian = system: IGROV1 ovarian
786-0 renal = system: 786-0 renal

Structure (SMILES): CC(=O)O[C@H]1C(=O)[C@@]2(C)[C@H]([C@H](OC(=O)c3ccccc3)[C@]3(O)C[C@H](OC(=O)[C@H](O)[C@@H](NC(=O)c4ccoc4)c4ccccc4)C(C)=C1C3(C)C)[C@]1(OC(C)=O)CO[C@@H]1C[C@@H]2O
- GI50 (EKVX NSCLC): 17.2 µM
- TGI (EKVX NSCLC): > 100 µM
- TGI (SF-268 CNS): > 100 µM
- TGI (PC-3 prostate): > 100 µM
- TGI (NCI-H23 lung): 31.2 µM
- TGI (UACC-257 melanoma): 68.5 µM
- TGI (M14 melanoma): 0.661 µM
- TGI (SNB-19 CNS): > 100 µM
- TGI (LOX IMVI melanoma): > 100 µM
- TGI (NCI-H460 lung): 28 µM
- TGI (RPMI-8226 leukemia): > 100 µM
- TGI (SR leukemia): 47 µM
- TGI (A549 NSCLC): > 100 µM
- GI50 (SNB-75 CNS): 0.0531 µM
- GI50 (CCRF-CEM leukemia): 0.0334 µM
- TGI (CCRF-CEM leukemia): > 100 µM
- TGI (SK-OV-3 ovarian): 32.7 µM
- GI50 (MOLT-4 leukemia): 0.042 µM
- TGI (MOLT-4 leukemia): > 100 µM
- TGI (DU-145 prostate): > 100 µM
- TGI (MDA-MB-435): 0.039 µM
- TGI (OVCAR-8 ovarian): 47.8 µM
- GI50 (SK-MEL-2 melanoma): 27.8 µM
- TGI (SF-295 CNS): 22.9 µM
- GI50 (K-562 leukemia): 0.0337 µM
- TGI (K-562 leukemia): > 100 µM
- TGI (HOP-62 NSCLC): 16.4 µM
- TGI (SN12C renal): > 100 µM
- TGI (NCI/ADR-RES ovarian): > 100 µM
- TGI (OVCAR-5 ovarian): 0.091 µM
- TGI (COLO 205 colon): 16.9 µM
- TGI (UACC-62 melanoma): 31.9 µM
- TGI (KM12 colon): 14.1 µM
- TGI (MDA-N): 0.0166 µM
- TGI (SK-MEL-5 melanoma): 0.399 µM
- TGI (A498 renal): 0.698 µM
- TGI (SF-539 CNS): 0.257 µM
- TGI (SW-620 colon): > 100 µM
- GI50 (HCT-15 colon): 0.907 µM
- TGI (HCT-15 colon): > 100 µM
- GI50 (T-47D breast): 26.3 µM
- TGI (T-47D breast): > 100 µM
- GI50 (ACHN renal): 0.0584 µM
- TGI (ACHN renal): > 100 µM
- GI50 (TK-10 renal): 0.164 µM
- TGI (TK-10 renal): 40.4 µM
- TGI (UO-31 renal): > 100 µM
- TGI (OVCAR-4 ovarian): > 100 µM

Structure (SMILES): CCOC(=O)C(NC(=O)CC)(C(F)(F)F)P(=O)(OCC)OCC (stereo not given)
- TGI (MDA-MB-231 breast): > 100 µM
- TGI (EKVX NSCLC): > 100 µM
- TGI (SF-268 CNS): > 100 µM
- TGI (M14 melanoma): > 100 µM
- TGI (HT29 colon): > 100 µM
- TGI (U251 CNS): > 100 µM
- TGI (RPMI-8226 leukemia): > 100 µM
- TGI (SR leukemia): > 100 µM
- TGI (MCF7 breast): > 100 µM
- TGI (SNB-75 CNS): > 100 µM
- TGI (CCRF-CEM leukemia): > 100 µM
- TGI (SK-OV-3 ovarian): > 100 µM
- TGI (NCI-H522 lung): > 100 µM
- TGI (MOLT-4 leukemia): > 100 µM
- TGI (DU-145 prostate): > 100 µM
- TGI (MALME-3M melanoma): > 100 µM
- TGI (MDA-MB-435): > 100 µM
- TGI (K-562 leukemia): > 100 µM
- TGI (HOP-62 NSCLC): > 100 µM
- TGI (SN12C renal): > 100 µM
- TGI (HCC-2998 colon): > 100 µM
- TGI (SK-MEL-28 melanoma): > 100 µM
- TGI (UACC-62 melanoma): > 100 µM
- TGI (MDA-N): > 100 µM
- TGI (A498 renal): > 100 µM
- TGI (SF-539 CNS): > 100 µM
- TGI (HL-60(TB) leukemia): > 100 µM
- TGI (HCT-15 colon): > 100 µM
- TGI (T-47D breast): > 100 µM
- TGI (HCT-116 colon): > 100 µM
- TGI (ACHN renal): > 100 µM
- TGI (UO-31 renal): > 100 µM

Structure (SMILES): CC1(C)CSCC(C)(C)C(=N/N)/C1=N\N
- TGI (EKVX NSCLC): > 100 µM
- TGI (SF-268 CNS): > 100 µM
- TGI (PC-3 prostate): > 100 µM
- TGI (NCI-H23 lung): > 100 µM
- TGI (UACC-257 melanoma): > 100 µM
- TGI (M14 melanoma): > 100 µM
- TGI (SNB-19 CNS): > 100 µM
- TGI (OVCAR-3 ovarian): > 100 µM
- TGI (HT29 colon): > 100 µM
- TGI (LOX IMVI melanoma): > 100 µM
- TGI (U251 CNS): > 100 µM
- TGI (CAKI-1 renal): > 100 µM
- TGI (NCI-H460 lung): > 100 µM
- TGI (SR leukemia): > 100 µM
- TGI (A549 NSCLC): > 100 µM
- TGI (MCF7 breast): > 100 µM
- TGI (SNB-75 CNS): > 100 µM
- TGI (SK-OV-3 ovarian): > 100 µM
- TGI (NCI-H522 lung): > 100 µM
- TGI (DU-145 prostate): > 100 µM
- TGI (MALME-3M melanoma): > 100 µM
- TGI (MDA-MB-435): > 100 µM
- TGI (OVCAR-8 ovarian): > 100 µM
- TGI (SK-MEL-2 melanoma): > 100 µM
- TGI (SF-295 CNS): > 100 µM
- TGI (K-562 leukemia): > 100 µM
- TGI (HOP-92 NSCLC): > 100 µM
- TGI (HOP-62 NSCLC): > 100 µM
- TGI (SN12C renal): > 100 µM
- TGI (NCI/ADR-RES ovarian): > 100 µM
- TGI (HCC-2998 colon): > 100 µM
- TGI (OVCAR-5 ovarian): > 100 µM
- TGI (COLO 205 colon): > 100 µM
- TGI (NCI-H226 lung): > 100 µM
- TGI (SK-MEL-28 melanoma): > 100 µM
- TGI (UACC-62 melanoma): > 100 µM
- TGI (KM12 colon): > 100 µM
- TGI (MDA-N): > 100 µM
- TGI (SK-MEL-5 melanoma): > 100 µM
- TGI (A498 renal): > 100 µM
- TGI (IGROV1 ovarian): > 100 µM
- TGI (SF-539 CNS): > 100 µM
- TGI (SW-620 colon): > 100 µM
- TGI (HL-60(TB) leukemia): > 100 µM
- TGI (HCT-15 colon): > 100 µM
- TGI (T-47D breast): > 100 µM
- TGI (HCT-116 colon): > 100 µM
- TGI (786-0 renal): > 100 µM
- TGI (ACHN renal): > 100 µM
- TGI (TK-10 renal): > 100 µM
